Assay results from US20090209577A1, “Novel Triazolopyridine Compounds” (PFIZER INC., priority 2004, published 2009).
Structures can show the parent of a compound that is named as a salt.

Molecular target: T1, human p38 kinase alpha (Homo sapiens, UniProt Q16539)
T1 construct: The coding region of the human p38a cDNA was obtained by PCR-amplification from RNA isolated from the human monocyte cell line THP.1; made in house; host or cells: E. coli DH10B
Assay: p38 kinase in vitro assay (PHAS-I / 32P-ATP format or EGFRP / 33P-ATP format)
Assay type: biochemical
Conditions: activated human p38 kinase alpha, 50 μM unlabeled ATP; two assay formats, table does not say which
Protocol: The ability of compounds to inhibit human p38 kinase alpha was evaluated using two in vitro assay methods. In the first method, activated human p38 kinase alpha phosphorylates a biotinylated substrate, PHAS-I (phosphorylated heat and acid stable protein-insulin inducible), in the presence of gamma ^32P-ATP (^32P-ATP). PHAS-I was biotinylated prior to the assay and provides a means of capturing the substrate, which is phosphorylated during the assay. p38 Kinase was activated by MKK6. Compounds were tested in 10 fold serial dilutions over the range of 100 μM to 0.001 μM using 1% DMSO. Each concentration of inhibitor was tested in triplicate.
All reactions were carried out in 96 well polypropylene plates. Each reaction well contained 25 mM HEPES pH 7.5, 10 mM magnesium acetate and 50 μM unlabeled ATP. Activation of p38 was required to achieve sufficient signal in the assay. Biotinylated PHAS-1 was used at 1-2 μg per 50 μl reaction volume, with a final concentration of 1.5 μM. Activated human p38 kinase alpha was used at 1 μg per 50 μl reaction volume representing a final concentration of 0.3 μM. Gamma ^32P-ATP was used to follow the phosphorylation of PHAS-1. ^32P-ATP has a specific activity of 3000 Ci/mmol and was used at 1.2 μCi per 50 μl reaction volume. The reaction proceeded either for one hour or overnight at 30° C.
Following incubation, 20 μl of reaction mixture was transferred to a high capacity streptavidin coated filter plate (SAM-streptavidin-matrix, Promega) prewetted with phosphate buffered saline. The transferred reaction mix was allowed to contact the streptavidin membrane of the Promega plate for 1-2 minutes. Following capture of biotinylated PHAS-1 with ^32P incorporated, each well was washed to remove unincorporated ^32P-ATP three times with 2M NaCl, three washes of 2M NaCl with 1% phosphoric, three washes of distilled water and finally a single wash of 95% ethanol. Filter plates were air-dried and 20 μl of scintillant was added. The plates were sealed and counted.
A second assay format was also employed that is based on p38 kinase alpha induced phosphorylation of EGFRP (epidermal growth factor receptor peptide, a 21 mer) in the presence ^33P-ATP. Compounds were tested in 10 fold serial dilutions over the range of 100 μM to 0.001 μM in 1% DMSO. Each concentration of inhibitor was tested in triplicate. Compounds were evaluated in 50 μl reaction volumes in the presence of 25 mM Hepes pH 7.5, 10 mM magnesium acetate, 4% glycerol, 0.4% bovine serum albumin, 0.4 mM DTT, 50 μM unlabeled ATP, 25 μg EGFRP (200 μM), and 0.05 μCi ^33P-ATP. Reactions were initiated by addition of 0.09 μg of activated, purified human GST-p38 kinase alpha. Activation was carried out using GST-MKK6 (5:1, p38:MKK6) for one hour at 30° C. in the presence of 50 μM ATP. Following incubation for 60 minutes at room temperature, the reaction was stopped by addition of 150 μl of AG 1×8 resin in 900 mM sodium formate buffer, pH 3.0 (1 volume resin to 2 volumes buffer). The mixture was mixed three times with pipetting and the resin was allowed to settle. A total of 50 μl of clarified solution head volume was transferred from the reaction wells to Microlite-2 plates. 150 μl of Microscint 40 was then added to each well of the Microlite plate, and the plate was sealed, mixed, and counted.
The above protocol assays were used to determine the IC50 values for compounds in Examples 1-71 above.

T1 sequence (Q16539 whole entry): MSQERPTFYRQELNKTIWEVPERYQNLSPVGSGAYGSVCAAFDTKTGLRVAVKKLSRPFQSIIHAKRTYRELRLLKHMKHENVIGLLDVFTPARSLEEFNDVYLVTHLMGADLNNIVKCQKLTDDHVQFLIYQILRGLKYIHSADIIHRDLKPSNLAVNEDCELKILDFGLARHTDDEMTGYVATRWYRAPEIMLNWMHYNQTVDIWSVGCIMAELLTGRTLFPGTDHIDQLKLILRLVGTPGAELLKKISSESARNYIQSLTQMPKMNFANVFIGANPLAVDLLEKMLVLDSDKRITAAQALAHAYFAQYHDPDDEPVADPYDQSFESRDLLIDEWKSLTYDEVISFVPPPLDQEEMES

| Compound | IC50 |
| --- | --- |
| CC(C)c1nnc2ccc([C@@H]3C[C@@H]3c3ccc(F)cc3F)cn12 (racemic) [Example 3, Racemic 6-[2-(2,4-difluorophenyl)cyclopropyl]-3-isopropyl[1,2,4]triazolo[4,3-a]pyridine] | 16.9 µM |
| COC(=O)c1ccc(C)c(-c2nnc3n2CC(CCc2ccc(F)cc2F)CC3)c1 (racemic) [Example 18, racemic methyl 3-{6-[2-(2,4-difluorophenyl)ethyl]-5,6,7,8-tetrahydro[1,2,4]triazolo[4,3-a]pyridin-3-yl}-4-methylbenzoate] | 0.107 µM |
| Cc1ccc(C(=O)O)cc1-c1nnc2n1CC(CCc1ccc(F)cc1F)CC2 (racemic) [Example 19, racemic 3-{6-[2-(2,4-difluorophenyl)ethyl]-5,6,7,8-tetrahydro[1,2,4]triazolo[4,3-a]pyridin-3-yl}-4-methylbenzoic acid] | 7.55 µM |
| Cc1ccc(C(N)=O)cc1-c1nnc2n1CC(CCc1ccc(F)cc1F)CC2 (racemic) [Example 20, racemic 3-{6-[2-(2,4-difluorophenyl)ethyl]-5,6,7,8-tetrahydro[1,2,4]triazolo[4,3-a]pyridin-3-yl}-4-methylbenzamide] | 1.27 µM |
| OCC(O)c1ccc(-c2nnc3ccc(Sc4ccc(F)cc4F)cn23)cc1 (racemic) [Example 31, racemic-1-(4-{6-[(2,4-difluorophenyl)thio][1,2,4]triazolo[4,3-a]pyridin-3-yl}phenyl)ethane-1,2-diol hydrochloride] | 0.0053 µM |
| CC(C)c1nnc2ccc(Cc3ccc(F)cc3F)cn12 [8 (step 1), 6-(2,4-difluorobenzyl)-3-isopropyl[1,2,4]triazolo[4,3-a]pyridine] | 0.0261 µM |
| CC(C)(C)c1nnc2ccc(C(O)c3ccc(F)cc3F)cn12 (centres unmarked) [15 (step 1), (3-tert-butyl[1,2,4]triazolo[4,3-a]pyridin-6-yl)(2,4-difluorophenyl)methanol] | 0.319 µM |
| C=CCC(C)(C)c1nnc2ccc(Sc3ccc(F)cc3F)cn12 [33 (step 2), 6-[(2,4-difluorophenyl)thio]-3-(1,1-dimethylbut-3-enyl)[1,2,4]triazolo[4,3-a]pyridine hydrochloride] | 0.0163 µM |
| CC1(C)OCC(CC(C)(C)c2nnc3ccc(Sc4ccc(F)cc4F)cn23)O1 (centres unmarked) [33 (step 3), 6-[(2,4-difluorophenyl)thio]-3-[2-(2,2-dimethyl-1,3-dioxolan-4-yl)-1,1-dimethylethyl][1,2,4]triazolo[4,3-a]pyridine hydrochloride] | 0.698 µM |
| CC(C)c1nnc2ccc(Sc3ccc(F)cc3F)cn12 [34 (step 1), 6-[(2,4-difluorophenyl)thio]-3-isopropyl[1,2,4]triazolo[4,3-a]pyridine hydrochloride] | 0.0793 µM |
| COC(=O)c1ccc(C)c(-c2nnc3ccc(Br)cn23)c1 [41 (step 2), methyl 3-(6-bromo[1,2,4]triazolo[4,3-a]pyridin-3-yl)-4-methylbenzoate] | 12.9 µM |
| COC(=O)c1ccc(C)c(-c2nnc3ccc(Sc4ccc(F)cc4F)cn23)c1 [41 (step 3), methyl 3-{6-[(2,4-difluorophenyl)thio][1,2,4]triazolo[4,3-a]pyridin-3-yl}-4-methylbenzoate] | 0.0078 µM |
| Cc1ccc(C(=O)O)cc1-c1nnc2ccc(Sc3ccc(F)cc3F)cn12 [41 (step 4), 3-{6-[(2,4-difluorophenyl)thio][1,2,4]triazolo[4,3-a]pyridin-3-yl}-4-methylbenzoic acid hydrochloride] | 2.92 µM |
| CC(=O)OCC(=O)N1CCC(c2nnc3ccc(Sc4ccc(F)cc4F)cn23)CC1 [44 (step 4), 2-(4-{6-[(2,4-difluorophenyl)thio][1,2,4]triazolo[4,3-a]pyridin-3-yl}piperidin-1-yl)-2-oxoethyl acetate hydrochloride] | 0.367 µM |
| Cc1cc(Br)ccc1-c1nnc2ccc(Sc3ccc(F)cc3F)cn12 [45 (step 2), 3 (4-bromo-2-methylphenyl)-6-[(2,4-difluorophenyl)thio][1,2,4]triazolo[4,3-a]pyridine hydrochloride] | 0.141 µM |
| C=Cc1ccc(-c2nnc3ccc(Sc4ccc(F)cc4F)cn23)c(C)c1 [45 (step 3), 6-[(2,4-difluorophenyl)thio]-3-(2-methyl-4-vinylphenyl)[1,2,4]triazolo[4,3-a]pyridine hydrochloride] | 0.106 µM |

| Compound | IC50 |
| --- | --- |
| Cc1cc(C(O)CO)ccc1-c1nnc2ccc(Sc3ccc(F)cc3F)cn12 (centres unmarked) [45 (step 4), 1-(4-{6-[(2,4-difluorophenyl)thio][1,2,4]triazolo[4,3-a]pyridin-3-yl}-3-methylphenyl)ethane-1,2-diol hydrochloride] | 0.0283 µM |
| C=Cc1ccc(-c2nnc3ccc(Cc4ccc(F)cc4F)cn23)cc1 [62 (step 2), 6-(2,4-difluorobenzyl)-3-(4-vinylphenyl)[1,2,4]triazolo[4,3-a]pyridine] | 2.29 µM |
| CC(C)c1nnc2ccc(/C=C\c3ccc(F)cc3F)cn12 [Example 1, 6-[(Z)-2-(2,4-difluorophenyl)vinyl]-3-isopropyl[1,2,4]triazolo[4,3-a]pyridine] | 0.535 µM |
| CC(C)c1nnc2ccc(CCc3ccc(F)cc3F)cn12 [Example 2, 6-[2-(2,4-difluorophenyl)ethyl]-3-isopropyl[1,2,4]triazolo[4,3-a]pyridine] | 0.085 µM |
| CC(=O)c1ccc2nnc(C(C)C)n2c1 [Example 4, 1-(3-isopropyl[1,2,4]triazolo[4,3-a]pyridin-6-yl)ethanone] | > 100 µM |
| CC(C)c1nnc2ccc(C(=O)Cc3ccc(F)cc3F)cn12 [Example 5, 2-(2,4-difluorophenyl)-1-(3-isopropyl[1,2,4]triazolo[4,3-a]pyridin-6-yl)ethanone] | 7.37 µM |
| CC(C)c1nnc2ccc(COCc3ccc(F)cc3F)cn12 [Example 6, 6-{[(2,4-difluorobenzyl)oxy]methyl}-3-isopropyl[1,2,4]triazolo[4,3-a]pyridine] | > 100 µM |
| CC(C)c1nnc2ccc(-c3cnn(Cc4ccccc4)c3)cn12 [Example 7, 6-(1-benzyl-1H-pyrazol-4-yl)-3-isopropyl[1,2,4]triazolo[4,3-a]pyridine] | > 100 µM |
| CC(C)c1nnc2n1CC(Cc1ccc(F)cc1F)CC2 (centres unmarked) [Example 8, 6-(2,4-difluorobenzyl)-3-isopropyl-5,6,7,8-tetrahydro[1,2,4]triazolo[4,3-a]pyridine hydrochloride] | 5.59 µM |
| CC(C)c1nnc2ccc(Cc3ccc(Cl)nc3)cn12 [Example 9, 6-[(6-chloropyridin-3-yl)methyl]-3-isopropyl[1,2,4]triazolo[4,3-a]pyridine] | 53.3 µM |
| CC(C)(C)c1nnc2ccc(Cc3ccc(Cl)nc3)cn12 [Example 10, 3-tert-butyl-6-[(6-chloropyridin-3-yl)methyl][1,2,4]triazolo[4,3-a]pyridine] | 21.6 µM |
| CC(C)c1nnc2ccc(C(=O)Nc3ccc(F)cc3F)cn12 [Example 11, N-(2,4-difluorophenyl)-3-isopropyl[1,2,4]triazolo[4,3-a]pyridine-6-carboxamide] | > 100 µM |
| CC(C)(C)c1nnc2ccc(OCc3ccc(F)cc3F)cn12 [Example 12, 3-tert-butyl-6-[(2,4-difluorobenzyl)oxy][1,2,4]triazolo[4,3-a]pyridine] | 19.5 µM |
| CC(C)(C)c1nnc2ccc(O)c(Cc3ccc(F)cc3F)n12 [Example 13, 3-tert-butyl-5-(2,4-difluorobenzyl)[1,2,4]triazolo[4,3-a]pyridin-6-ol] | > 100 µM |
| CC(C)(C)c1nnc2n1CC(c1ocnc1-c1cc(F)c(F)cc1F)CC2 (centres unmarked) [Example 14, 3-tert-butyl-6-[4-(2,4,5-trifluorophenyl)-1,3-oxazol-5-yl]-5,6,7,8-tetrahydro[1,2,4]triazolo[4,3-a]pyridine] | 0.786 µM |
| CC(C)(C)c1nnc2ccc(C(=O)c3ccc(F)cc3F)cn12 [Example 15, (3-tert-butyl[1,2,4]triazolo[4,3-a]pyridin-6-yl)(2,4-difluorophenyl)methanone] | 1.05 µM |
